The series can be described thus: Relative stability of crystalline polymorphs (DSC, x-ray powder diffraction). The format is physicochemical. The following applies: non-solvated crystalline forms of 4,7β-dimethyl-4-aza-5α-cholestan-3-one. As to the method:
The crystallinity of each batch was determined primarily from Differential Scanning Calorimetry (DSC) employing a DuPont Model 910 Thermal Analyzer. However, any other reliable means may be employed to determine the crystallinity of a sample, such as x-ray powder diffraction, solid state NMR, or polarizing microscopy.
Generally, a DSC sample was prepared by weighing. 10 to 30 mg of material into a DSC cup and crimping the cup closed. Preferably, each DSC sample was run as soon as possible after preparation, most preferably within 15 minutes of preparation, because crystallinity increases with aging. Generally, samples were heated at a rate of 10° C./min from 10° C. to 100° C. under nitrogen. The DSC peaks were integrated and the measured heat of formation was divided by 46.6 J/g (the average heat of formation of samples confirmed by x-ray diffraction to contain no Form II) to calculate the percent crystallinity of the sample. The term percent crystallinity refers to the weight percent of 4,7β-dimethyl-4-aza-5α-cholestan-3-one sample weight in Form I.
X-ray diffraction was also employed to confirm DSC results. […] This method was not employed for quantitative analysis of the degree of crystallinity.

Structures are written as SMILES. “Also recorded” adds a separate entry of the source.

Polymorph stability data for 2 compounds are collected here from US5585383A, “Process for crystallizing a 4-azasteroid 5alpha-reductase inhibitor” (Merck & Co., Inc., priority 1995, dated 1996).

For `CC(C)CCC[C@@H](C)[C@H]1CC[C@H]2[C@@H]3[C@@H](C)C[C@H]4N(C)C(=O)CC[C@]4(C)[C@H]3CC[C@]12C` [Form I, 4,7β-dimethyl-4-aza-5α-cholestan-3-one], the polymorph stability result is recorded as “more stable, energetically favored polymorph”.
As to `CC(C)CCC[C@@H](C)[C@H]1CC[C@H]2[C@@H]3[C@@H](C)C[C@H]4N(C)C(=O)CC[C@]4(C)[C@H]3CC[C@]12C` [Form II, 4,7β-dimethyl-4-aza-5α-cholestan-3-one], the polymorph stability entry is reported as “transforms to Form I with time and/or mechanical manipulation; also recorded: less energetically favored polymorph”.
